Measurements as given in PubChem BioAssay (NCI).
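Dose response: 5 concentrations. Exposure: 48 h. Format: 96-well plates. Endpoint: linear interpolation; highest concentration if not reached. GI50 = concentration required for 50% inhibition of growth. TGI denotes the concentration required for complete inhibition of growth.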

What was measured:
Assay in all cases: growth of human tumour cells (NCI), 48 h
BT-549 breast = test system: BT-549 breast
HCC-2998 colon = test system: HCC-2998 colon
HOP-92 NSCLC = test system: HOP-92 NSCLC
MDA-MB-231 breast = test system: MDA-MB-231 breast
NCI-H460 lung = test system: NCI-H460 lung
SF-268 CNS = test system: SF-268 CNS
SK-MEL-28 melanoma = test system: SK-MEL-28 melanoma
SN12C renal = test system: SN12C renal
U251 CNS = test system: U251 CNS
UACC-62 melanoma = test system: UACC-62 melanoma

Row | SMILES | TGI (BT-549 breast) | TGI (HCC-2998 colon) | TGI (HOP-92 NSCLC) | TGI (MDA-MB-231 breast) | TGI (NCI-H460 lung) | TGI (SF-268 CNS) | TGI (SK-MEL-28 melanoma) | TGI (SN12C renal) | TGI (U251 CNS) | TGI (UACC-62 melanoma) | GI50 (BT-549 breast) | GI50 (HCC-2998 colon) | GI50 (HOP-92 NSCLC) | GI50 (MDA-MB-231 breast) | GI50 (NCI-H460 lung) | GI50 (SF-268 CNS) | GI50 (SK-MEL-28 melanoma) | GI50 (SN12C renal) | GI50 (U251 CNS) | GI50 (UACC-62 melanoma)
1 | CN1c2ccccc2S(=O)(=O)n2c(CCc3ccccc3)nnc21 | > 100 µM | > 100 µM | 98.7 µM | > 100 µM | > 100 µM | > 100 µM | > 100 µM | > 100 µM | > 100 µM | > 100 µM |  |  |  |  |  |  |  |  |  | 
2 | CC[C@]1(O)C[C@@H]2CN(CCc3c([nH]c4ccccc34)[C@@](C(=O)OC)(c3cc4c(cc3OC)N(C)[C@H]3[C@@](O)(C(N)=O)[C@H](O)[C@]5(CC)[C@@H]6C[C@@H]6CN6CC[C@]43[C@@H]65)C2)C1 | 0.708 µM | > 29 µM | 1.82 µM | > 16.2 µM | > 33.3 µM | > 33.3 µM | > 33.3 µM | > 33.3 µM | > 33.3 µM | > 33.3 µM | < 0.00333 µM | 0.00413 µM | < 0.00333 µM | 0.00548 µM | 0.00366 µM | 0.00352 µM | 6.47 µM | 0.0373 µM | < 0.00333 µM | < 0.00333 µM
3 | COC(=O)c1ccc2c(c1)C(=O)c1c-2n(CCCN)c(=O)c2cc(OC)c(OC)cc12 | 35.4 µM | 25.9 µM | 32.1 µM | 31.5 µM | 29.5 µM | 42 µM | 35.2 µM | 31.4 µM | 32.1 µM | 30.2 µM | 17.1 µM | 11.9 µM | 14.2 µM | 13.6 µM | 13 µM | 18.6 µM | 17.9 µM | 14.9 µM | 16 µM | 15.4 µM
4 | COc1ccc(/C=C\c2cc(OC)c(OC)c(OC)c2)c(NS(=O)(=O)c2ccc(Cl)cc2)c1O | 34.5 µM | 16.4 µM | 23.6 µM | 21.4 µM | 14.4 µM | 33.9 µM | 31.6 µM | 46.5 µM | 15.5 µM | 22.6 µM | 0.353 µM | 0.429 µM | 2.36 µM | 0.206 µM | 0.316 µM | 0.38 µM | 0.084 µM | 0.708 µM | 0.287 µM | 0.0635 µM
5 | C/C(=C(/c1ccc(O)cc1)c1ccc(Cl)cc1)c1ccccc1 | 1.53 µM | 1.51 µM | 1.09 µM | 1.86 µM | 0.945 µM | 1.61 µM | 2.18 µM | 0.977 µM | 1.18 µM | 1.06 µM | 0.575 µM | 0.612 µM | 0.448 µM | 0.653 µM | 0.471 µM | 0.582 µM | 0.685 µM | 0.466 µM | 0.537 µM | 0.473 µM
